Where “and” joins values, the source holds several entries; their conditions need not be identical. Equal entries are not always repeated.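 96-well plates; 48 h exposure; 5 concentrations. Endpoints by linear interpolation between flanking doses. Not reached: highest tested concentration assigned. At the GI50, growth is halved. Definition used: TGI = concentration required for complete inhibition of growth.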
Tests used:
Assay in all cases: NCI tumour cell line growth inhibition, 48 h
[1] = tested on: SK-OV-3 ovarian
[2] = tested on: SF-295 CNS
[3] = tested on: SF-268 CNS
[4] = tested on: RXF 393 renal
[5] = tested on: MALME-3M melanoma
[6] = tested on: COLO 205 colon
[7] = tested on: SK-MEL-5 melanoma
[8] = tested on: NCI-H23 lung
[9] = tested on: MDA-MB-231 breast
[10] = tested on: T-47D breast

SMILES	TGI [1]	TGI [2]	TGI [3]	TGI [4]	TGI [5] [µM]	TGI [6]	TGI [7]	TGI [8]	GI50 [1]	GI50 [2]	GI50 [3]	GI50 [9]	TGI [9]	GI50 [4]	GI50 [5] [µM]	GI50 [7]	GI50 [10]	TGI [10]	GI50 [8]	GI50 [6]
COC(=O)OCC1OC(N2C(=O)NC(=O)C(I)C2N=[N+]=[N-])CC1OC(=O)OC (stereo not given)	> 100 µM	> 100 µM	> 100 µM	> 100 µM	> 100	> 100 µM	> 100 µM	> 100 µM												
O=c1/c(=C/c2cccc3ccccc23)sc2nc3ccccc3n12		> 100 µM	> 100 µM	> 100 µM	> 100	> 100 µM	> 100 µM	> 100 µM												
COC(=O)c1cnc2nc(N3CCOCC3)[nH]n2c1=O	> 100 µM	> 100 µM	> 100 µM	> 100 µM	> 100	> 100 µM	> 100 µM	> 100 µM												
COc1ccc(-c2cc3c4c(nc5ccccc5c4c2)CC(c2cc(OC)c(OC)c(OC)c2)O3)cc1 (stereo not given)	17.2 µM	12.5 µM	5.48 µM	4.65 µM	3.87		8.27 µM	18.5 µM	4.08 µM	3.5 µM	1.72 µM	2.15 µM	7.16 µM	1.92 µM	1.32	2.67 µM	2.34 µM	7.53 µM	3.75 µM	
[Cu+2].[Cu+2].[O-]c1ccccc1C=Nc1ccccc1[O-].[O-]c1ccccc1C=Nc1ccccc1[O-]	40.4 µM	27.6 µM	24.2 µM		27.3	5.11 µM	12 µM	4.85 µM	25.5 µM	8.01 µM	11.8 µM				13.7	3.3 µM			1.96 µM	2.26 µM
O=CC1=CCCC2(C1)OCCO2	> 100 µM	> 100 µM	> 100 µM	> 100 µM	> 100	> 100 µM	> 100 µM	> 100 µM												
CCCCN(CC)C(=O)C(=O)C1C(=O)Nc2ccccc2S1=O (stereo not given)	> 100 µM		> 100 µM	> 100 µM	> 100	> 100 µM	> 100 µM	> 100 µM												
COc1cc2c(cc1OC)C1c3ccccc3C(C#N)(C2)N(C(=O)c2ccccc2)C1O (stereo not given)	> 100 µM	> 100 µM	> 100 µM	> 100 µM	> 100	53.1 µM	90 µM	> 100 µM												
CN(C)CCNC(=O)c1ccc2ccc3cccnc3c2n1	> 100 µM	88.2 µM	54.5 µM	27.3 µM	28.7	23.9 µM	28.3 µM	42.2 µM												
CC(=O)[CH-]C(=O)c1ccccc1.CC(=O)[CH-]C(=O)c1ccccc1.[Nd+3].[OH-].[OH3+]	> 100 µM	> 100 µM	> 100 µM	> 100 µM	> 100	> 100 µM	> 100 µM	> 100 µM	> 100 µM	> 100 µM	> 100 µM			> 100 µM	> 100	> 100 µM			> 100 µM	> 100 µM
CC(=O)O[C@]1(C(C)=O)CC[C@H]2[C@@H]3C[C@H](C)C4=CC(=O)C=C[C@]4(C)[C@@]3(F)[C@@H](O)C[C@@]21C	51 µM	> 100 µM	> 100 µM	> 100 µM	> 100	> 100 µM	> 100 µM	> 100 µM												
O=C(NC1CCCCC1)c1c(O)[nH]c(=S)[nH]c1=O	> 100 µM	> 100 µM	> 100 µM		> 100	> 100 µM	> 100 µM	> 100 µM												
O=C(O)CSc1n[nH]c(/C=C/c2ccccc2)n1	> 100 µM	> 100 µM	> 100 µM	> 100 µM	> 100	> 100 µM	> 100 µM	> 100 µM												
C[C@]12CC[C@H](O)CC1=CC[C@@H]1[C@@H]2CC[C@]2(C)C(=O)/C(=C/c3cccc(OCCCn4ccnc4)c3)C[C@@H]12	62.7 µM	> 100 µM	55.6 µM		59.1	45.8 µM	24.6 µM	32.3 µM	17.4 µM	31.7 µM	21.4 µM	20.6 µM	40.4 µM		23.9	11.1 µM	12.4 µM	31.3 µM	15.5 µM	20.3 µM
CC(NC(=O)c1ccccc1)C(=O)N(Cc1ccccc1)Cc1ccccc1 (stereo not given)	> 100 µM	75 µM	> 100 µM	98.4 µM	53.7	40.8 µM	44.9 µM	60.4 µM												
N=C(N)/N=C(/C=C/c1ccccc1)CC1OC(=O)c2ccccc21 (stereo not given)			> 100 µM	> 100 µM	> 100	> 100 µM	> 100 µM													
O=C1CCC2(c3ccc(F)cc3)Nc3ccccc3N12 (stereo not given)	> 100 µM	> 100 µM	> 100 µM	> 100 µM	> 100	> 100 µM	> 100 µM	> 100 µM												
O=c1cc2n(c(=O)[nH]1)C1OC(C(O)C1O)[C@@H]2CCO (stereo not given in full)	> 100 µM	> 100 µM	> 100 µM	> 100 µM	> 100		> 100 µM	> 100 µM												
CCCOC(=O)N[C@H]1CCc2c(Br)c(OC)c(OC)c(OC)c2-c2ccc(SC)c(=O)cc21	59.5 µM	0.833 µM	17.8 µM	24.8 µM	27.2		0.0501 µM	> 57.3 µM	0.0726 µM	0.0252 µM	0.0455 µM	0.0359 µM	6.45 µM	0.0397 µM	0.0348	0.0162 µM	14.1 µM	> 100 µM	0.0348 µM	
COCCNCC(O)Cn1c2ccc(Cl)cc2c2cc(Cl)ccc21 (stereo not given)	5.93 µM	4.28 µM	3.48 µM		3.89	3.83 µM	3.18 µM	4.7 µM	2.46 µM	1.93 µM	1.79 µM	1.67 µM	3.4 µM		1.98	1.71 µM	1.97 µM	4.03 µM	2.1 µM	2.08 µM
COc1ccc2c(c1)C(=O)c1c-2c(NCCCN(C)C)nc2ccccc12		18.9 µM	4.71 µM		15.5	18.8 µM	14.4 µM	10 µM		5.13 µM	1.7 µM	1.98 µM	11.6 µM		3.86	3.87 µM	17.8 µM	34.2 µM	2.78 µM	5.23 µM

SMILES	TGI [1]	TGI [2]	TGI [3]	TGI [4]	TGI [5] [µM]	TGI [6]	TGI [7]	TGI [8]	GI50 [1]	GI50 [2]	GI50 [3]	GI50 [9]	TGI [9]	GI50 [4]	GI50 [5] [µM]	GI50 [7]	GI50 [10]	TGI [10]	GI50 [8]	GI50 [6]
COc1cc2c(cc1OC)C13CCN4CC5=CCOC(CC(=O)O)C(C5CC41)C3N2 (stereo not given)	> 100 µM	> 100 µM	> 100 µM		> 100	> 100 µM	> 100 µM	> 100 µM					> 100 µM							
O=C1c2ccn(CCCCN3CCOCC3)c2C(=O)c2c1c(O)c1ccccc1c2O	55.4 µM	16.2 µM	30.9 µM	6.93 µM		34 µM		23.6 µM	16.2 µM	3.58 µM	9.44 µM	12.7 µM	32.4 µM	2.2 µM			8.45 µM	97.7 µM	11.4 µM	5.69 µM
COc1ccc(CC(=O)c2cc(OC)c(OC)cc2C)cc1OC	> 100 µM	> 100 µM	> 100 µM		> 100	> 100 µM	> 100 µM	> 100 µM												
CN(C)c1c(Cl)c(=O)oc2c1ccc1nc(-c3ccccc3)sc12		> 100 µM	> 100 µM	> 100 µM	> 100	> 100 µM	> 100 µM	> 100 µM					> 100 µM					> 100 µM		
O=C(/C=C/c1ccc(OCCCCCCCCCCOc2ccc(/C=C/C(=O)c3ccc(Cl)cc3)cc2)cc1)c1ccc(Cl)cc1	> 100 µM	> 100 µM	> 100 µM	> 100 µM	> 100	> 100 µM	> 100 µM	> 100 µM												
COc1cc(OC)cc(N2CCC(c3c(N)nc(N)nc3Cl)CC2)c1	> 100 µM	> 100 µM	> 100 µM	> 100 µM	> 100	> 100 µM	97.7 µM	> 100 µM												
Cc1cccc(C)c1NC(=O)CCC(=O)NNC(=O)c1cc(O)c2ccccc2c1	> 100 µM	87.6 µM	> 100 µM	> 100 µM	> 100	49 µM	84.6 µM	88 µM												
Cc1c(/C=C2\CC/C(=C\c3[nH]c(C(=O)OC(C)(C)C)c(C)c3C)C2=O)[nH]c(C(=O)OC(C)(C)C)c1C	> 100 µM	> 100 µM	> 100 µM	> 100 µM	> 100	> 100 µM	> 100 µM	> 100 µM												
CCc1nc2c(O)ccc(O)c2nc1C	34.2 µM	34.2 µM	34.2 µM	25.5 µM	29.3	7.26 µM	31.2 µM	33.4 µM												
O=C1OCC(c2ccc(O)c(O)c2)=C1c1cc(O)c(O)c(O)c1		30.9 µM	> 100 µM	> 100 µM	> 100	57.7 µM	> 100 µM	38.2 µM		14.6 µM	63.7 µM	15.2 µM	31 µM	> 100 µM	> 100	38.2 µM	23.2 µM	60.2 µM	19.2 µM	23.3 µM
COc1ccc(CNc2cc(OC)cc(OC)c2)cc1	> 100 µM	> 100 µM	> 100 µM	> 100 µM	> 100	> 100 µM	> 100 µM	> 100 µM		> 100 µM and 38.2 µM										
CN(C)CCC1(C2=CCCC2)CC/C(=C\c2ccc3c(c2)OCO3)C1=O (stereo not given)		29.5 µM	28.1 µM	21.3 µM	30.1	47.7 µM	27.6 µM	33 µM												
OCCN1CCN(CCCN2c3ccccc3Sc3ccc(C(F)(F)F)cc32)CC1	11.7 µM and 29.1 µM and 27.3 µM	2.7 µM and 19.2 µM and 6.19 µM	11.5 µM and 24.5 µM	6.39 µM and 18.9 µM and 19.6 µM		1.53 µM and 4.46 µM and 3.59 µM	1.43 µM and 11 µM and 4.8 µM	12 µM and 24.5 µM and 24.1 µM	5.55 µM and 14.5 µM and 13.3 µM	1.02 µM and 4.73 µM and 2.41 µM	5.2 µM and 11.5 µM	1.2 µM and 8.87 µM and 5.68 µM	5.07 µM and 22.8 µM and 18.1 µM	1.35 µM and 5.08 µM and 5.7 µM		0.764 µM and 3.02 µM and 1.98 µM	1.36 µM and 8.88 µM and 7.46 µM	6.12 µM and 25.8 µM and 22.9 µM	5.2 µM and 11.6 µM and 10.5 µM	0.795 µM and 2.17 µM and 1.93 µM
N#C/C(=C\c1ccc(CP(=O)(O)O)cc1)C(N)=O	> 100 µM	> 100 µM	> 100 µM		> 100	> 100 µM	> 100 µM	> 100 µM												
CS(=O)(=O)C1S(=O)(=O)OCCOS1(=O)=O	> 100 µM	> 100 µM	> 100 µM	> 100 µM	> 100	> 100 µM	> 100 µM	> 100 µM												
O=C(Cc1ccccc1)Oc1ccc2c(-c3ccccc3)c(C(=O)Nc3ccc(Cl)cc3)c(=O)oc2c1	> 100 µM	> 100 µM	> 100 µM	> 100 µM	> 100	> 100 µM	> 100 µM	> 100 µM												
OCC(O)CC[CH2][Sn]([c]1ccccc1)([c]1ccccc1)[c]1ccccc1 (stereo not given)	34.1 µM	23.3 µM		19.7 µM		35.3 µM	29.1 µM	29.8 µM	19.7 µM	11.3 µM				4.32 µM		15.3 µM			15.1 µM	19.5 µM
CC(C)(C)c1nc2c(o1)C(=Nc1ccccc1)c1ccccc1C2=O	63.4 µM	10.2 µM	21 µM	14.7 µM	3.01	63 µM	2.97 µM	5.29 µM												
CC(C)C1CN1CC(O)Cn1ccnc1[N+](=O)[O-] (stereo not given)	> 100 µM	> 100 µM	> 100 µM		> 100	> 100 µM	> 100 µM	> 100 µM					> 100 µM					> 100 µM		
CC1=CC[C@@H]2[C@@H](CC[C@@]2(C)O)C(C)(C)[C@H]1CC[C@@H]1[C@@]2(C)CCC(=O)C(C)(C)O[C@@H]2CC[C@]1(C)O	> 100 µM	48.9 µM	> 100 µM			55.8 µM	39.1 µM	> 100 µM					> 100 µM					> 100 µM		

From PubChem BioAssay (NCI)
